# From ChEMBL document CHEMBL5291721, “A preclinical secondary pharmacology resource illuminates target-adverse drug reaction associations of marketed drugs” (Nat Commun, 2023)
# Columns and labels:
# Adenosine receptor A2a = Adenosine receptor A2a (Homo sapiens, UniProt P29274)
# [1] = biological target: T1, Type-1 angiotensin II receptor (Homo sapiens, UniProt P30556)
# T1 sequence (P30556 whole entry): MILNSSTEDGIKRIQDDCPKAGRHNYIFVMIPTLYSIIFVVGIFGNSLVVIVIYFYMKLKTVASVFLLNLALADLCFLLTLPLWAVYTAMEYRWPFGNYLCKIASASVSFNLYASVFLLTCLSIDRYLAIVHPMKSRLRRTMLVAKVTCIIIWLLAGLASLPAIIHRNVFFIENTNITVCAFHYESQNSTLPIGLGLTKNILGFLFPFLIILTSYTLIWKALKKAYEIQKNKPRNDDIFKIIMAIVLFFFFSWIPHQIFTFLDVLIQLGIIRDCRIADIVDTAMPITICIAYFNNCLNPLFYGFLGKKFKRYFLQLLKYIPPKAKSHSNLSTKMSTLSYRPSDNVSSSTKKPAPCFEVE
# [2] = biological target: T2, 5-hydroxytryptamine receptor 1A (Homo sapiens, UniProt P08908); format: functional, cell-based
# T2 sequence (P08908 whole entry): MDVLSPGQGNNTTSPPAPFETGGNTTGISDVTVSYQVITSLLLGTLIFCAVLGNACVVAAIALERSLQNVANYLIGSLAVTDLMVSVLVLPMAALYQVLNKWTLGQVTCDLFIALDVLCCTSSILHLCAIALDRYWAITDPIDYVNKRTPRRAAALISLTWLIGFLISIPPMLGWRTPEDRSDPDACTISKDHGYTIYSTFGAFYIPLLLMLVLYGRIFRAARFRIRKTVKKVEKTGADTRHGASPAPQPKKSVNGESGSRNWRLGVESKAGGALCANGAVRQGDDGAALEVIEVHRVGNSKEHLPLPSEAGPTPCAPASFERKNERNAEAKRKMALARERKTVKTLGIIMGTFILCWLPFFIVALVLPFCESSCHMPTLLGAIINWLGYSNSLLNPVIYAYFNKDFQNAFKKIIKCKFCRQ
# Melanocortin receptor 3 = Melanocortin receptor 3 (Homo sapiens, UniProt P41968)
# Sequence of Melanocortin receptor 3 (P41968 whole entry): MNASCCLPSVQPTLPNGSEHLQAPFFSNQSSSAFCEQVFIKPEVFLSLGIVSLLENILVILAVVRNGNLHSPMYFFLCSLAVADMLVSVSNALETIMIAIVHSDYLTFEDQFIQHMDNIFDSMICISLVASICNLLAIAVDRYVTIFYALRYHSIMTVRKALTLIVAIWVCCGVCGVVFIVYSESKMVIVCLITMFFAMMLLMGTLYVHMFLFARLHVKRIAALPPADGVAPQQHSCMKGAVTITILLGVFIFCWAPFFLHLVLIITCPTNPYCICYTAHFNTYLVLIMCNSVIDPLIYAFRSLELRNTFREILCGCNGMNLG
# Progesterone receptor = biological target: T3, Progesterone receptor (Homo sapiens, UniProt P06401); format: functional
# T3 sequence (P06401 whole entry): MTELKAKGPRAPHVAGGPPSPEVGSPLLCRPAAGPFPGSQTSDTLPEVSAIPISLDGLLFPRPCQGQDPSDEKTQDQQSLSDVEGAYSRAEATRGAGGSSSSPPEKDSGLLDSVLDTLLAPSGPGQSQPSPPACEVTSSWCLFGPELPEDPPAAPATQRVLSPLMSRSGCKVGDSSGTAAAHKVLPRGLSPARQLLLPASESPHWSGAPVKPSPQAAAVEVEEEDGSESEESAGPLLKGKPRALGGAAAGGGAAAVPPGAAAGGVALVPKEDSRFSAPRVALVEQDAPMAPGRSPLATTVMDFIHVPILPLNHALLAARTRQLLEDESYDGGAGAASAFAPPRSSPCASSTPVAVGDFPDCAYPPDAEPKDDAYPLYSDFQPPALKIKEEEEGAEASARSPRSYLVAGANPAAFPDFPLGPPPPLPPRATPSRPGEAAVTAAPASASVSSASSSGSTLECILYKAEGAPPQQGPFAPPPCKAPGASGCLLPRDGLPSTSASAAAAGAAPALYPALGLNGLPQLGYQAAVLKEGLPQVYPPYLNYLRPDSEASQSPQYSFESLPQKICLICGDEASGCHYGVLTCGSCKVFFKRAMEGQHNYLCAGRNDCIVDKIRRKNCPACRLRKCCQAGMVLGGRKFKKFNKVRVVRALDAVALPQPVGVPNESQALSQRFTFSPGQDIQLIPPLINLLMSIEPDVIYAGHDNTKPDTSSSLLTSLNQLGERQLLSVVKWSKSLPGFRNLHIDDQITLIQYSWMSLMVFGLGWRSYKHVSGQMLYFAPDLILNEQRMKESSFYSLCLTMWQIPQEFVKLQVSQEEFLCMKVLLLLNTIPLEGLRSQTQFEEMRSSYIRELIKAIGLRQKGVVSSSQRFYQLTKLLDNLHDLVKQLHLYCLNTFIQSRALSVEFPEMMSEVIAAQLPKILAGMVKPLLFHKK
# [3] = biological target: T4, Amine oxidase [flavin-containing] A (Homo sapiens, UniProt P21397); format: functional
# T4 sequence (P21397 whole entry): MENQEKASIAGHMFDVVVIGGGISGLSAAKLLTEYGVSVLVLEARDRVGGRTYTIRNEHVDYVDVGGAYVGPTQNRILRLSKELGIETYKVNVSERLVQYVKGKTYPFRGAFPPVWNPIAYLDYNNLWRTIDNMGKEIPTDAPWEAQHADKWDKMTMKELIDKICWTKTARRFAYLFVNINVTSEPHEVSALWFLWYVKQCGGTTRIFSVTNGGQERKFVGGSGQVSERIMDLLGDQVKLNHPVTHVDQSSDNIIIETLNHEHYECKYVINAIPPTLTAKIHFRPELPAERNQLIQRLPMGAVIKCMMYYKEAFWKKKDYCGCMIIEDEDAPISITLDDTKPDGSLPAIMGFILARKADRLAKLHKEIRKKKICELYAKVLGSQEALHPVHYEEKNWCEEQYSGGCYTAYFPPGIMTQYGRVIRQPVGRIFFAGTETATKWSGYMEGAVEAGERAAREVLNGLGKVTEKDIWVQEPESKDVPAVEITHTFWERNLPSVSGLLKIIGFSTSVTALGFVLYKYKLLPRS
# D(3) dopamine receptor = D(3) dopamine receptor (Homo sapiens, UniProt P35462)
# Sequence of D(3) dopamine receptor (P35462 whole entry): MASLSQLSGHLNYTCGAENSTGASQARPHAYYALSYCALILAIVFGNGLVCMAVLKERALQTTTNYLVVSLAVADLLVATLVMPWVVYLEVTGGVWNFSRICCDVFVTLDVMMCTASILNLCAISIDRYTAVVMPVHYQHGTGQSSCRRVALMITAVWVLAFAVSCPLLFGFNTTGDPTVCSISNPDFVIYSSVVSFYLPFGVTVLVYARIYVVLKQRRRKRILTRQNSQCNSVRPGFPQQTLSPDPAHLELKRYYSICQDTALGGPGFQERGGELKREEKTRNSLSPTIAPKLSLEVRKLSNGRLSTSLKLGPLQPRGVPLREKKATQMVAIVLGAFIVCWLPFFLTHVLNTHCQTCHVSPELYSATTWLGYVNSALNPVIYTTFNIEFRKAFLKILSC
# [4] = biological target: T5, Alpha-1A adrenergic receptor (Homo sapiens, UniProt P35348); format: functional, cell-based
# T5 sequence (P35348 whole entry): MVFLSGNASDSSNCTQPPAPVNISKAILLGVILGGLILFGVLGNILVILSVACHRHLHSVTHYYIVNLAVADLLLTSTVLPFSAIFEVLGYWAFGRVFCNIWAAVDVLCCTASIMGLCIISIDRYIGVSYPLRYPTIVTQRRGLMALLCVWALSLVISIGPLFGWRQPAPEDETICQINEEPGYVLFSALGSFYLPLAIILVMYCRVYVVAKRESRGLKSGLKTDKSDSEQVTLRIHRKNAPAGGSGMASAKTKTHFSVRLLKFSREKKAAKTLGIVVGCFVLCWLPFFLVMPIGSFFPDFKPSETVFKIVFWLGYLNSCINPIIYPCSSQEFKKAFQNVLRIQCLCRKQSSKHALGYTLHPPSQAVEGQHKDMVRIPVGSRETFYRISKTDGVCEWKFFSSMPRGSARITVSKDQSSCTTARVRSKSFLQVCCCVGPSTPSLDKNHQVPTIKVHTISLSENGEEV
# Also: assay procedure not described here.
# Sequence of Adenosine receptor A2a (P29274 whole entry): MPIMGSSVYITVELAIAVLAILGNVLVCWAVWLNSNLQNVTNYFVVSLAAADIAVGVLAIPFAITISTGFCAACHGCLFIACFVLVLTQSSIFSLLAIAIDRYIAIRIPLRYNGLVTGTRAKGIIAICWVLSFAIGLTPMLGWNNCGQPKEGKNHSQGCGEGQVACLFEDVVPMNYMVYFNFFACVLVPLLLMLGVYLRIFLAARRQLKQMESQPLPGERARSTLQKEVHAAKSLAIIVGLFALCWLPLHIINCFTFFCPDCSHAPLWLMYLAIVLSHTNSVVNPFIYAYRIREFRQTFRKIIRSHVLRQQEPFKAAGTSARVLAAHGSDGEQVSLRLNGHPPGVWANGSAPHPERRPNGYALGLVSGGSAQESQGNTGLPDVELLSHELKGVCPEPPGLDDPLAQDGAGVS
smiles,measurement,setting,value
Fc1ccc(C(c2ccccc2)(c2ccccc2F)n2ccnc2)cc1 (centres undefined) [FLUTRIMAZOLE],AC50,Adenosine receptor A2a,> 30 µM
same,AC50,[1],> 30 µM
same,AC50,[2],> 30 µM
same,AC50,Melanocortin receptor 3,> 30 µM
same,AC50,Progesterone receptor,> 30 µM
same,AC50,[3],> 30 µM
same,AC50,D(3) dopamine receptor,> 30 µM
same,AC50,[4],> 30 µM
COc1ccc2c3c1O[C@H]1[C@@H](O)CC[C@H]4[C@@H](C2)N(C)CC[C@@]341 [DIHYDROCODEINE],AC50,[2],> 30 µM
same,AC50,[3],> 30 µM
same,AC50,D(3) dopamine receptor,> 30 µM
same,AC50,[4],> 30 µM
CC(C)(C)NCC(O)COc1cccc2c1CCC(=O)N2 (centres undefined) [CARTEOLOL],AC50,Adenosine receptor A2a,> 10 µM
same,AC50,[1],> 10 µM
same,AC50,[2],> 10 µM
same,AC50,Melanocortin receptor 3,> 10 µM
same,AC50,Progesterone receptor,> 10 µM
same,AC50,[3],> 10 µM
same,AC50,D(3) dopamine receptor,> 30 µM
same,AC50,[4],> 30 µM
C[C@@H]1O[C@@H](O[C@@H]2C=C3CC[C@@H]4[C@H](CC[C@]5(C)[C@@H](c6ccc(=O)oc6)CC[C@]45O)[C@@]3(C)CC2)[C@H](O)[C@H](O)[C@H]1O [PROSCILLARIDIN],AC50,Adenosine receptor A2a,> 30 µM
same,AC50,[1],> 30 µM
same,AC50,[2],> 30 µM
same,AC50,Melanocortin receptor 3,> 30 µM
same,AC50,Progesterone receptor,> 30 µM
same,AC50,[3],> 30 µM
same,AC50,D(3) dopamine receptor,> 30 µM
same,AC50,[4],> 30 µM
Clc1ccccc1C(c1ccccc1)(c1ccccc1)n1ccnc1 [CLOTRIMAZOLE],AC50,[2],> 10 µM
same,AC50,[3],> 10 µM
same,AC50,D(3) dopamine receptor,> 30 µM
same,AC50,[4],> 30 µM
Brc1c(NC2=NCCN2)ccc2nccnc12 [BRIMONIDINE],AC50,Adenosine receptor A2a,> 30 µM
same,AC50,[1],> 30 µM
same,AC50,[2],5 µM
same,AC50,Melanocortin receptor 3,> 30 µM
same,AC50,Progesterone receptor,> 30 µM
same,AC50,[3],> 30 µM
same,AC50,D(3) dopamine receptor,> 30 µM
Cc1cc(C(C)(C)C)c(O)c(C)c1CC1=NCCN1 [OXYMETAZOLINE],AC50,[2],0.0094 µM
same,AC50,Melanocortin receptor 3,> 30 µM
same,AC50,Progesterone receptor,> 30 µM
same,AC50,[3],> 30 µM
same,AC50,D(3) dopamine receptor,20.1 µM
Nc1nc(Cl)nc2c1ncn2[C@H]1C[C@H](O)[C@@H](CO)O1 [CLADRIBINE],AC50,Adenosine receptor A2a,> 30 µM
same,AC50,[1],> 30 µM
same,AC50,[2],> 30 µM
same,AC50,Melanocortin receptor 3,> 30 µM
same,AC50,Progesterone receptor,> 30 µM
same,AC50,[3],> 30 µM
same,AC50,D(3) dopamine receptor,> 30 µM
same,AC50,[4],> 30 µM
O=C1C(O)=C([C@H]2CC[C@H](c3ccc(Cl)cc3)CC2)C(=O)c2ccccc21 [ATOVAQUONE],AC50,Adenosine receptor A2a,> 30 µM
same,AC50,[1],> 30 µM
same,AC50,[2],> 30 µM
same,AC50,Melanocortin receptor 3,> 30 µM
same,AC50,Progesterone receptor,> 30 µM
same,AC50,[3],> 30 µM
same,AC50,D(3) dopamine receptor,> 30 µM
same,AC50,[4],> 30 µM
COc1cccc(C2(O)CCCCC2CN(C)C)c1 (centres undefined) [TRAMADOL],AC50,Adenosine receptor A2a,> 30 µM
same,AC50,[1],> 30 µM
same,AC50,[2],> 10 µM
same,AC50,Melanocortin receptor 3,> 30 µM
same,AC50,[3],> 10 µM
same,AC50,D(3) dopamine receptor,> 10 µM
same,AC50,[4],> 30 µM
CC1(C)CCC(CN2CCN(c3ccc(C(=O)NS(=O)(=O)c4ccc(NCC5CCOCC5)c([N+](=O)[O-])c4)c(Oc4cnc5[nH]ccc5c4)c3)CC2)=C(c2ccc(Cl)cc2)C1 [VENETOCLAX],AC50,Melanocortin receptor 3,> 30 µM
same,AC50,Progesterone receptor,> 30 µM
same,AC50,[3],> 30 µM
same,AC50,D(3) dopamine receptor,> 30 µM
NC(=O)OCC(COC(N)=O)c1ccccc1 [FELBAMATE],AC50,Adenosine receptor A2a,> 10 µM
same,AC50,[1],> 10 µM
same,AC50,[2],> 10 µM
same,AC50,Melanocortin receptor 3,> 10 µM
same,AC50,Progesterone receptor,> 10 µM
same,AC50,[3],> 10 µM
same,AC50,D(3) dopamine receptor,> 10 µM
CC/C(=C(\c1ccccc1)c1ccc(OCCN(C)C)cc1)c1ccccc1 [TAMOXIFEN],AC50,[2],> 10 µM
same,AC50,[3],> 10 µM
same,AC50,D(3) dopamine receptor,2.9 µM
same,AC50,[4],> 30 µM
C[C@H]1COc2c(C3(N)CC3)c(F)cc3c(=O)c(C(=O)O)cn1c23 [PAZUFLOXACIN],AC50,Adenosine receptor A2a,> 10 µM
same,AC50,[1],> 10 µM
same,AC50,[2],> 10 µM
same,AC50,Melanocortin receptor 3,> 10 µM
same,AC50,[3],> 10 µM
same,AC50,D(3) dopamine receptor,> 30 µM
C#C[C@]1(O)CC[C@H]2[C@@H]3[C@H](C)CC4=C(CCC(=O)C4)[C@H]3CC[C@@]21C [TIBOLONE],AC50,Adenosine receptor A2a,> 30 µM
same,AC50,[1],> 30 µM
same,AC50,[2],> 30 µM
same,AC50,Melanocortin receptor 3,> 30 µM
same,AC50,Progesterone receptor,0.4 µM
same,AC50,[3],> 30 µM
same,AC50,D(3) dopamine receptor,> 30 µM
same,AC50,[4],> 30 µM
Cc1c(OCC(F)(F)F)ccnc1C[S+]([O-])c1nc2ccccc2[nH]1 (centres undefined) [LANSOPRAZOLE],AC50,Adenosine receptor A2a,> 30 µM
same,AC50,[1],> 30 µM
same,AC50,[2],> 10 µM
same,AC50,Melanocortin receptor 3,> 30 µM
same,AC50,[3],> 10 µM
same,AC50,D(3) dopamine receptor,> 10 µM
same,AC50,[4],> 30 µM
CC(CC1c2ccccc2CCc2ccccc21)CN(C)C (centres undefined) [BUTRIPTYLINE],AC50,[3],> 30 µM
same,AC50,D(3) dopamine receptor,1.7 µM
same,AC50,[4],15 µM
NC(=O)CN1CC(O)CC1=O (centres undefined) [OXIRACETAM],AC50,Adenosine receptor A2a,> 30 µM
same,AC50,[1],> 30 µM
same,AC50,[2],> 30 µM
same,AC50,Melanocortin receptor 3,> 30 µM
same,AC50,Progesterone receptor,> 30 µM
same,AC50,[3],> 30 µM
same,AC50,D(3) dopamine receptor,> 30 µM
same,AC50,[4],> 30 µM
Cc1nnc2n1-c1ccc(Cl)cc1C(c1ccccc1Cl)=NC2 [TRIAZOLAM],AC50,Adenosine receptor A2a,> 30 µM
same,AC50,[1],> 30 µM
same,AC50,[2],> 10 µM
same,AC50,Melanocortin receptor 3,> 30 µM
same,AC50,[3],> 10 µM
same,AC50,D(3) dopamine receptor,> 30 µM
same,AC50,[4],> 30 µM
COc1ccc(CCNCC(O)COc2cccc(C)c2)cc1OC (centres undefined) [BEVANTOLOL],AC50,Adenosine receptor A2a,> 10 µM
same,AC50,[1],> 10 µM
same,AC50,[2],1.2 µM
same,AC50,Melanocortin receptor 3,> 10 µM
same,AC50,Progesterone receptor,> 10 µM
same,AC50,[3],> 10 µM
same,AC50,D(3) dopamine receptor,> 30 µM
same,AC50,[4],12 µM
